Measurements as given in article PMC9889269, “Synthetic anaplerotic modules for the direct synthesis of complex molecules from CO2” (Nature Chemical Biology, 2022).

Target: T1, Aat (acetyl-CoA acetyltransferase) (Cupriavidus necator, UniProt P14611)
T1 construct: gene phaA; recombinant from E. coli BL21(DE3), Ni-NTA purified, desalted
T1 sequence (P14611 1-393): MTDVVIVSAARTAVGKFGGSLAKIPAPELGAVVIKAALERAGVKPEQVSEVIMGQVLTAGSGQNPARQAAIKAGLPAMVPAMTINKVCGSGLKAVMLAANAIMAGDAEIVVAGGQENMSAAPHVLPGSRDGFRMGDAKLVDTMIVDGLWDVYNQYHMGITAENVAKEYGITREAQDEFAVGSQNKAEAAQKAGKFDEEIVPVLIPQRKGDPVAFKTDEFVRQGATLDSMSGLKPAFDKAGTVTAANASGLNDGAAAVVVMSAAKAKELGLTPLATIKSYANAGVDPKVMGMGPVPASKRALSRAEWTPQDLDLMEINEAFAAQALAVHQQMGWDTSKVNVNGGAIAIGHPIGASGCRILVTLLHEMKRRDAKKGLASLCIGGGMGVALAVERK
Experiment: LC-MS of condensation products, with Aar and Bbd
Format: biochemical
Conditions: acetyl-CoA and propionyl-CoA together

Row | Compound | LC-MS of condensation products, with Aar and Bbd | LC-MS of condensation products, with Aar and Bbd (condensed with acetyl-CoA, not with itself)
1 | CC(=O)SCCNC(=O)CCNC(=O)[C@H](O)C(C)(C)COP(=O)(O)OP(=O)(O)OC[C@H]1O[C@@H](n2cnc3c(N)ncnc32)[C@H](O)[C@@H]1OP(=O)(O)O [acetyl-CoA] | Promiscuity of Aat assayed with acetyl-CoA and propionyl-CoA | 
2 | CCC(=O)SCCNC(=O)CCNC(=O)[C@H](O)C(C)(C)COP(=O)(O)OP(=O)(O)OC[C@H]1O[C@@H](n2cnc3c(N)ncnc32)[C@H](O)[C@@H]1OP(=O)(O)O [propionyl-CoA] |  | All products for acetyl- and propionyl-CoA combinations were detectable
